Measured values as given in PMC2725296, “Interrogating and Predicting Tolerated Sequence Diversity in Protein Folds: Application to E. elaterium Trypsin Inhibitor-II Cystine-Knot Miniprotein” (PLoS Computational Biology, 2009).
No end group written: not given here.

What was measured:
[1] = tested on: trypsin; test: trypsin binding of individual yeast-displayed EETI loop 3 clones by dual-color flow cytometry; details: triplicate; for trypsin binding level as percentage of EETIwt / trypsin binding level relative to EETIwt (fold higher): adjusted for expression (cMyc), normalized to EETIwt; for statistical significance of trypsin binding level over the highest-binding randomly-generated clone: single-factor ANOVA (p<0.02), 25 nM trypsin; for trypsin binding level relative to EETIwt (fold higher): single-factor ANOVA p<0.05 vs EETIwt
Source text: In addition, we also constructed twenty-five clones where EETI loop 3 was replaced by a randomly-generated nine-amino acid sequence (Table S2). Plasmids containing DNA encoding for predicted and randomly-generated clones were transformed into yeast and induced for expression on the yeast cell surface as described above. Next, we analyzed the predicted and randomly-generated EETI loop 3 clones by dual-color flow cytometry for yeast cell surface expression and binding to fluorescent trypsin, indicating retention of the knottin fold (Figure 8). […] Overall, the least-similar predicted clones also bound trypsin, but not as well as the motif-filtered clones, as expected. The small differences in trypsin binding levels of six of the least-similar predicted clones as compared to EETIwt were deemed statistically insignificant, based on single-factor ANOVA (p<0.05). […] Even the best randomly-generated clone only bound trypsin at 16% of the wild-type EETI trypsin binding level. The successful prediction of nine-amino acid sequences that can be substituted into EETI loop 3 without disrupting the knottin fold highlights the potential of this combinatorial approach for rational protein engineering applications.
Figure 8 Trypsin-binding levels of EETI loop 3 predicted and randomly-generated clones. […] Predicted clones are preceded with a ‘p’ while randomly-generated clones are preceded with an ‘r.’ Protein expression levels were quantified by immunofluorescence staining of the cMyc epitope tag. Retention of the knottin fold was determined by binding of fluorescently-labeled trypsin (25 nM). Trypsin binding levels were adjusted to account for differences in protein expression levels and then normalized to the trypsin-binding level of EETIwt. Trypsin-binding experiments were performed in triplicate and error bars denote standard deviations.
YPD media contained 20 g/L dextrose, 20 g/L peptone, and 10 g/L yeast extract. Selective SD-CAA media contained 20 g/L dextrose, 6.7 g/L yeast nitrogen base without amino acids, 5.4 g/L Na2HPO4, 8.6 g/L NaH2PO4⋅H2O, and 5 g/L Bacto casamino acids. Selective SD-CAA plates were of the same composition as the liquid media except with the addition of 182 g/L sorbitol and 15 g/L agar. SG-CAA media was identical to the SD-CAA media except dextrose was replaced with galactose. PBSA was composed of phosphate buffered saline containing 1 g/L bovine serum albumin. Lyophilized trypsin was purchased from Sigma Aldrich and fluorescently labeled with Alexa Fluor 488 tetrafluorophenyl ester (Invitrogen). Mouse anti-cMyc antibody was purchased from Covance and goat anti-mouse antibody conjugated to R-phycoerythrin was purchased from Sigma Aldrich.
Four rounds of FACS were performed on each EETI loop-substituted library to obtain an enriched pool of trypsin-binding clones. Libraries of yeast clones induced for protein expression were suspended in PBSA with mouse anti-cMyc monoclonal antibody (1∶50 dilution) and incubated for 1 h at room temperature. Yeast were pelleted by centrifugation at 4,000 rpm for 5 min, the supernatant was aspirated, and cells were washed with ice-cold PBSA. Washed yeast libraries were resuspended in PBSA with goat anti-mouse R-phycoerythrin secondary antibody (1∶25 dilution) and Alexa 488-labeled trypsin and incubated on ice in the dark for 30 min. […] Collected library clones were propagated in SD-CAA media with penicillin-streptomycin (400 µg/mL), induced for protein expression in SG-CAA media and subjected to three additional rounds of sorting. For the first round of sorting, approximately 2×10^7 yeast were sorted from each library, and at least 10 times the number of collected yeast were sorted in each subsequent round to decrease the probability of losing unique clones. Sort stringency was increased by gradually decreasing the concentration of Alexa488-labeled trypsin from 200 nM in the first round to 25 nM in the fourth round. […]

[2] = biological target: trypsin; test: equilibrium binding of fluorescently-labeled trypsin to yeast-displayed EETIwt (flow cytometry); details: data not shown
Source text: We measured cell surface expression levels of the EETIwt fusion protein by flow cytometry, after staining yeast cells with a primary antibody against a C-terminal cMyc epitope tag followed by the addition of a fluorescently-labeled secondary antibody. […] (Figure 2).
Figure 2 Yeast surface display of EETI knottins and isolation of properly folded EETI loop-substituted clones. […] Density plots depict protein expression (x-axis) versus trypsin binding (y-axis) for enriched pools of loop-substituted clones after four rounds of sorting. […] (C) The progression of enrichment for properly folded EETI loop-substituted variants was monitored by flow cytometry and quantified by trypsin binding levels (at 25 nM), normalized for differences in protein expression levels. Unsorted libraries (white), libraries after two rounds of sorting (light grey), and libraries after four rounds of sorting (dark grey), as compared to EETIwt (striped). Trypsin-binding experiments were performed in triplicate and error bars denote standard deviations.
YPD media contained 20 g/L dextrose, 20 g/L peptone, and 10 g/L yeast extract. Selective SD-CAA media contained 20 g/L dextrose, 6.7 g/L yeast nitrogen base without amino acids, 5.4 g/L Na2HPO4, 8.6 g/L NaH2PO4⋅H2O, and 5 g/L Bacto casamino acids. […]

[3] = 25 nM fluorescently-labeled trypsin

## NRNRKTPGY (disulfide (positions not given here)) [p3, motif-filtered predicted EETI loop 3 clone, …]
[1]; [3]
  trypsin binding level as percentage of EETIwt: approximately 70%

## NNTNTGRGY (disulfide (positions not given here)) [p20, least-similar predicted EETI loop 3 clone, …]
[1]; [3]
  trypsin binding level as percentage of EETIwt: approximately 30%
[1]
  statistical significance of trypsin binding level over the highest-binding randomly-generated clone: statistically significant over the highest-binding randomly-generated clone

## Ecballium elaterium trypsin inhibitor II [EETIwt]
[2]; Alexa Fluor 488-labeled trypsin, read-out: approximate equilibrium binding constant
  Kd: ~25 nM
[2]; fluorescently-labeled trypsin
  trypsin binding specificity, in words: bound specifically

## RRNRKTLGY (disulfide) [p9, motif-filtered predicted EETI loop 3 clone, …]
[1]; [3]
  trypsin binding level relative to EETIwt (fold higher): roughly 1.5 -fold

## NTTNNSPGY (disulfide (positions not given here)) [p25, least-similar predicted EETI loop 3 clone, …]
[1]; [3]
  trypsin binding level as percentage of EETIwt: approximately 30%
[1]
  statistical significance of trypsin binding level over the highest-binding randomly-generated clone: statistically significant over the highest-binding randomly-generated clone

## potato carboxypeptidase inhibitor: a knottin that does not bind trypsin; negative control (QQHADPICNKPCKTHDDCSGAWFCQACWNSARTCGPYVG; ends and bridges not checked; cysteine pairing not given here; UniProt P01075 1-39, looked up) [reference compound]
[1]; [3]
  trypsin binding level as percentage of EETIwt: < 5%
[1]; 25 nM fluorescently-labeled trypsin, yeast surface display
  trypsin binding, in words: does not bind trypsin

## NRNRRRTGY (disulfide (positions not given here)) [p1, motif-filtered predicted EETI loop 3 clone, …]
[1]; [3]
  trypsin binding level relative to EETIwt (fold higher): roughly 1.5 -fold
